Source: patent publication US7550476B2, “Condensed polycyclic compounds” (Mitsubishi Tanabe Pharma Corporation, priority 2001, dated 2009)

System: mouse (BDF1 strain, male)
Assay: Single-dose subcutaneous toxicity in mouse
Format: in vivo
Details: single dose 100 mg/kg subcutaneously, n=3, checked for 1 day
Experimental: Further, the compounds [I] and compounds [I-C] of the present invention have the merit of being less toxic, and highly safe as a medicine. For example, 8,9-dimethoxy-6-phenyl-1,3,4,6,11,11a-hexahydro-2H-pyrazino[1,2-b]-isoquinoline was subcutaneously administered to a mouse (BDF1 strain, male, n=3) in a single dose (100 mg/kg) and the progress was checked for 1 day.

SMILES | death
COc1cc2c(cc1OC)C(c1ccccc1)N1CCNCC1C2 (centres unmarked) [Compound A, 8,9-dimethoxy-6-phenyl-1,3,4,6,11,11a-hexahydro-2H-pyrazino[1,2-b]isoquinoline] | no death was observed

System: not given
Assay: not given
Details: not given

melting point | SMILES
198 to 203 °C (dec.) | COc1cc2c(cc1OC)C(c1ccccc1)N1CCN(Cc3ccccc3)CC1C2.Cl.Cl (centres unmarked)
217 to 220 °C (dec.) | COc1cc2c(cc1OC)C(c1ccccc1)N1CCN(CSC)CC1C2.Cl.Cl (centres unmarked)
214 to 217 °C (dec.) | COc1cc2c(cc1OC)C(c1ccccc1)N1CCN(CC(=O)O)CC1C2.Cl.Cl (centres unmarked)
229 to 233 °C (dec.) | COc1cc2c(cc1OC)C(c1ccccc1)N1CCN(C(=O)c3ccccc3)CC1C2.Cl (centres unmarked)
210 to 213 °C | COc1cc2cc(COC(C)=O)c(COC(C)=O)c(-c3ccnc(C4C(=O)CCCC4=O)c3)c2cc1OC
> 220 °C | COc1cc2cc(CO)c(CO)c(-c3ccnc(C4C(=O)CCCC4=O)c3)c2cc1OC
180 to 185 °C (dec.) | COc1cc2c(cc1OC)C(c1ccc(OC(C)C)cc1)N1CCNCC1C2.Cl.Cl (centres unmarked)
